Results: paper PMC10799341, “Carnosol ameliorated cancer cachexia-associated myotube atrophy by targeting P5CS and its downstream pathways” (Frontiers in Pharmacology, 2024)

Assays:
[1] = target: T1, P5CS, endogenous in H9c2 cardiomyocytes (Rattus norvegicus, UniProt A0A8I6AAN3); test: CETSA, Western blot; format: biochemical; settings: H9c2 cell lysate, 20 μM carnosol, 30 min room temperature then 1 h at 4 °C; heated 5 min
T1 construct: gene Aldh18a1; native endogenous protein in H9c2 cell lysate; no tag; detected by Western blot

GFP-Aldh18a1 (P5CS) = target: T2, GFP-Aldh18a1 (P5CS) (Mus musculus, UniProt Q9Z110); test: microscale thermophoresis (Monolith NT.[…]); format: binding
T2 construct: GFP fusion from plasmid, tag kept; expressed in 293T cells, used as NP40 lysate
T2 sequence (Q9Z110 1-795): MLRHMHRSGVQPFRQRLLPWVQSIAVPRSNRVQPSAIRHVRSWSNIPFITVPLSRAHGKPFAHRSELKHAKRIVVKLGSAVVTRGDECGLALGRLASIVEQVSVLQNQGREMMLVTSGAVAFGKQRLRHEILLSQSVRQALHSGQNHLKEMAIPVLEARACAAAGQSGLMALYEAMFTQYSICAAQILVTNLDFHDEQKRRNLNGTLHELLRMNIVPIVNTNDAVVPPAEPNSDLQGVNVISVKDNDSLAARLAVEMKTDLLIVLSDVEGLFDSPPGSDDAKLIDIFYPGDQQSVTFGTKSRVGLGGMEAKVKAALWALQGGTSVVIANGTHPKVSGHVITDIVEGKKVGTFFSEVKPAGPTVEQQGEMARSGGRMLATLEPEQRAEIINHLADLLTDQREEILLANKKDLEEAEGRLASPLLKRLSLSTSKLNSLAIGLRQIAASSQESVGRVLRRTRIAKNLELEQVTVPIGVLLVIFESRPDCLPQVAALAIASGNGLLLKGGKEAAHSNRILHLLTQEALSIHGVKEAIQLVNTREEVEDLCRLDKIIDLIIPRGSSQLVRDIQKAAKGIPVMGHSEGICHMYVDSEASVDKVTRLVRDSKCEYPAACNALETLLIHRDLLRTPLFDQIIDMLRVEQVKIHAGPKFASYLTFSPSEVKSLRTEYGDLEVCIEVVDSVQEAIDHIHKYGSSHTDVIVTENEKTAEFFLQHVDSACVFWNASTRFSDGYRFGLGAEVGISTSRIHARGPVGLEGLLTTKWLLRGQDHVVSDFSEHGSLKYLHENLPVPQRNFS

[2] = target: T3, P5CS (Aldh18a1), endogenous in C2C12 myotubes (Mus musculus, UniProt Q9Z110); test: CETSA, Western blot; format: cell-based; settings: intact C2C12 myotubes, 20 μM carnosol, 1 h; NP40 lysate heated 5 min
T3 construct: native endogenous protein in C2C12 myotubes; no tag; detected by Western blot
T3 sequence (Q9Z110 1-795): T2 sequence (Q9Z110 1-795)

T1 sequence (A0A8I6AAN3 1-795): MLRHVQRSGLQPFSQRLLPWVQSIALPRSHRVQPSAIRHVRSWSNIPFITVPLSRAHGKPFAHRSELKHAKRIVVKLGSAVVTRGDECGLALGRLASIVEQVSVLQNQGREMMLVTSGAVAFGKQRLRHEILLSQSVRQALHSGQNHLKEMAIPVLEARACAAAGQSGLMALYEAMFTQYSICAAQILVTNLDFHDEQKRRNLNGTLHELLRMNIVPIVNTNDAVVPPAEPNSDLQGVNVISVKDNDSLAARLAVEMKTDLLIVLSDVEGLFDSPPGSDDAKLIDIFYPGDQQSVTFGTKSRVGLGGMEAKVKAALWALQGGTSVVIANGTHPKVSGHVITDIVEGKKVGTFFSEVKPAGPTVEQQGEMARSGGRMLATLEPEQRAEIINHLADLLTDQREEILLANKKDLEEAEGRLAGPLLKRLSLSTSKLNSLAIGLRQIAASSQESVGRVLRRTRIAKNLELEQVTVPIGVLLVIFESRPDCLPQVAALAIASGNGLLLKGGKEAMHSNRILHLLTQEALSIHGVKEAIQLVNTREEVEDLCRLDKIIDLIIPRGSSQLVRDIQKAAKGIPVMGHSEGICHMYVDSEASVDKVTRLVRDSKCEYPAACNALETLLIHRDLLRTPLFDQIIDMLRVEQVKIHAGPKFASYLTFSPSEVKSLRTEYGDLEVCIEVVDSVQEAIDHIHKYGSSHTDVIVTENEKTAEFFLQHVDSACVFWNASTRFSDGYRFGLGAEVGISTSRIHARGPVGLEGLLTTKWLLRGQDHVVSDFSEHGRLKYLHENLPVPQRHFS

- Kd (GFP-Aldh18a1 (P5CS)): 17.4 µM
SMILES: CC(C)c1cc2c(c(O)c1O)[C@@]13CCCC(C)(C)[C@@H]1C[C@@H]2OC3=O [carnosol]
- thermal stability [1]: H9c2 cardiomyocytes also showed similar results that carnosol increased the thermal stability of P5CS
- thermal stability [2]: the thermal stability of P5CS in C2C12 was improved after the incubation of myotubes with carnosol
